Series [1] deals with rat embryonic fibroblast (REF 52) cells. Nature of the series: Ion permeation measurement, Ca^2+ flux with fura-2 (fibroblasts). The class given is cell-based. How it is done:
The following cell types were tested for toxicity due to KmTx 2; rat embryonic fibroblast, rat intestional epithelial, and isolated rabbit primary sensory neurons. Cells were cultured on No. 1 glass coverslips and loaded with fluorescent indicator (fura-2) and were examined on an inverted epifluorescence microscope (model Diaphot; 40×CF Fluor objective, N.A. 1.30; Nikon Corp.) coupled to a spectrofluorometer (model CM1T10I, SPEX Industries) operating in the microfluorometry mode. Cells were bathed in 4 ml of Dulbecco's modified Eagle's medium (DMEM) buffered with HEPES (pH 7.4). KmTx 2 (stock solution in DMSO) was directly bath-applied with gentle convective mixing. Fura-2 was alternately excited at 340 and 380 nm. Fluorescence emission was passed through a 510-nm bandpass filter before photometric quantitation. DATAMAX software (SPEX Industries) was used for data acquisition and instrument control. Origin software (OriginLab Corp.) was used for data reduction and analysis

Series [2] concerns Candida albicans (ATCC 14053). In words: Anti-fungal broth microdilution assay (yeast). In kind it is cell-based. The settings on record: lowest dose with no growth after 96 hours, 28° C. How it is done: The following fungal strains were purchased from the American Type Culture Collection (Manassas, Va.), Aspergillus niger (ATCC 1004) as a representative filamentous fungi, and Candida albicans (ATCC 14053) as a representative yeast. Assays were performed according to the following National Committee for Clinical Laboratory Standards documents; M27-A2 Reference Method for Broth Dilution Antifungal Susceptibility Testing of Yeasts; Approved Standard—Second Edition([NCCLS, 2002), and M38-A Reference Method for Broth Dilution Antifungal Susceptibility Testing of Filamentous Fungi; Approved Standard (NCCLS, 2002). Procedures for the broth microdilution modification were followed for both species with the following exceptions; A. niger stocks were maintained on Potato Dextrose Agar at 25° C., while C. albicans was maintained on Yeast Malt Agar at 28° C., both according to ATCC recommendations. Amphotericin B was used as a positive control. Microdilution assays were performed in HyQ-RPMI-1640 media (HyClone, Logan, Utah.), with 2.05 mM L-glutamine, without sodium bicarbonate, pH 7.2 using dilutions of 1 mg/ml DMSO stocks of KmTx 2 and amphotericin B.
The following concentrations were tested for both KmTx2 and amphotericin B: 0.0625, 0.125, 0.25, 0.5, 1, 2, 4, 8, and 16 μg/ml. A maximum of 1.6% DMSO was added to any given well. Plates were incubated at 25 and 28° C., respectively, for A. niger and C. albicans. […] Amphotericin B and all culture media were purchased from Sigma-Aldrich (St. Louis, Mo.).
A general note: In broth dilution the organism is exposed to a series of concentrations in liquid medium.

Series [3] concerns rainbow trout erythrocytes. As for the experimental part:
The filtrate from water samples collected on Feb. […] Environmental water samples were allowed to thaw to room temperature and passed through a Sep-Pak Plus tC18 disposable cartridge (Waters Corp., Milford Mass.), attached to a vacuum manifold. The column was pre-equilibrated with methanol (20 ml) followed by H2O (20 ml). The cartridges were eluted with the following concentrations of MeOH/H2O: 100% H2O, 40%, 60%, 80%, and 100% MeOH (12 ml ea^−1). An aliquot of each elution was diluted, using Tris buffer +CaCl2, to give final dilutions ranging from 6 to 60% of original concentrations. […] The occurrence of hemolytic activity was determined by the absorbance of released hemoglobin, measured at 540 nm. Saponin (10 μg) served as a positive hemolysin control. Treatments were run in quadruplicate.
A hemolytic assay based on the lysis of fish erythrocytes was utilized to screen for bioactive materials. Cultures and culture fractions that were positive in the hemolytic assay were tested further using assays for ichthyotoxicity and cytotoxicity.
Blood was extracted from the caudal vein of rainbow trout (Oncorhynchus mykis) provided by the Center of Marine Biotechnology's Aquaculture Research Center. Needles were heparin (Sigma Chemical Co., St. Louis Mo.) treated and 10 units ml^−1 of additional heparin was added to whole blood samples to prevent clotting. […] Buffer pH was adjusted to 7.4 at 10° C. with 1N HCl, then filter sterilized (0.22 μm). […] Suspensions were stored at 4° C. for no longer than 10 days.
Hemolytic assays were performed by diluting test material in Tris buffer +CaCl2 (100 μl total) and adding this to a 5% erythrocyte suspension (100 μl). […] Assays were incubated on an orbital shaker (80-100 rpm) at 20° C. for 1 hour. Plates were then centrifuged at 2500 g for 5 min. and the supernatant (100 μl) was transferred to another flat bottom 96 well polystyrene plate, where the absorbance of released hemoglobin was read at 540 nm. Saponin (10 μg) (from Quillaja bark; Sigma Chemical Co., St. Louis Mo.) was used as a positive hemolysin control All treatments were run in quadruplicate.
LC50values and ranges were determined by Probit analysis (SPSS Base 10.0, SPSS Inc., Chicago Ill.).
Blood was extracted from the caudal vein of rainbow trout (Oncorhynchus mykis). […] Buffer pH was adjusted to 7.4 at 10° C. with 1N HCl, then filter sterilized (0.22 um). […] Blood suspensions were stored at 4° C. for no longer than 10 days.
Hemolysis assays were performed by diluting test material in Tris buFFer +CaCl2 (100 ul) and adding this to 100 ul of a 5% erythrocyte suspension for a total assay volume of 200 ul. […] Plates were incubated on an orbital shaker (80-100 rpm) at 20° C. for 1 hour. Plates were then centrifuged at 2000 g for 5 min. and the supernatant (100 ul) was transferred to a new flat bottom 96 well polystyrene plate, where the absorbance of released hemoglobin was read at 540 nm. Saponin (from Quillaja bark; Sigma Chemical Co., St. Louis Mo.) was used as a positive hemolysin control. Percent hemolysis (0-100%) was calculated from comparison to un-treated controls and samples treated with 10 ug saponin. All treatments were run in quadruplicate.
Hemolytic LC50 values were calculated from a dilution series of KmTx 2 and amphotericin B. LC50 values and ranges were determined by Probit analysis using a SPSS Base 10.0 statistical software package (SPSS Inc., Chicago, Ill.).

The structures appear in SMILES notation. Converted amounts (≈) assume the structure as drawn. “Also recorded” adds a separate entry of the source.

In the case of `C=C(CC[C@H](O)[C@H]1O[C@H](C[C@@H](O)[C@H](O)[C@H](C)CCC[C@@H](O)[C@H](O)[C@H](O)[C@@H](C)CC[C@@H](O)[C@H](O)[C@H](C)C[C@@H](O)CCC[C@@H](O)CCC[C@@H](O)/C=C/C[C@@H](O)CO)[C@@H](O)[C@@H](O)[C@@H]1O)[C@H](O)[C@H](O)[C@@H]1C[C@H](O)[C@H](O)[C@@H]([C@H](O)[C@@H](O)/C=C/CCCCCCCC/C=C/C=C/Cl)O1` [KmTx 2], the “intracellular free Ca^2+ concentration ([Ca^2+]i)” value is “marked increase in intracellular free Ca^2+ concentration; also recorded: rapid increase in cytosolic Ca^2+ levels followed by slight recovery” in series [1] (0.25 μg/ml); “sharp and irreversible rise in [Ca^2+]i; also recorded: rapid rise in cytosoloc Ca^2+ levels with no recovery” in series [1] (1 μg/ml). For the same compound, the “Minimal inhibitory concentration (MIC)” value in series [2] came out at 16 µg/mL (≈ 11.9 µM). In series [3] (probit analysis of dilution series), the “hemolytic LC50” value is 0.368 µg/mL. Moreover, the “hemolytic activity compared to amphotericin B” value in series [3] (rainbow trout erythrocytes) is “ten fold higher”.

The record behind these values is patent publication US20050209104A1, “Dinoflagellate karlotoxins, methods of isolation and uses thereof” (priority 2002, published 2005).
